Reference: patent publication US9120946B2, “Active energy ray curing type composition, container that accommodates composition, inkjet discharging device having container, and cured matter” (RICOH COMPANY, LTD., priority 2013, dated 2015)

Key:
female mice = test: skin sensitization test based on the LLNA (Local Lymph Node Assay), SI value by BrdU intake; assay type: in vivo; conditions: test substance 50.0 W/v % in acetone/olive oil 4:1, 25 μL to both auricles once a day for 3 days, SI less than 3 = negative
Description: The individuals remaining after the categorization were excluded from the test.
The test substance was weighed in a measuring flask, and the volume of the test substance was adjusted to 1 mL with the medium. The thus-prepared test substance preparation was placed in a light-shielded airtight container (made of glass).
This treatment was performed once a day for three consecutive days.
The surrounding tissue of each auricular lymph node was removed, and the auricular lymph nodes from both the auricles were collectively weighed.
After returning the auricular lymph nodes to room temperature, the auricular lymph nodes were mashed with the gradual addition of physiological saline, and suspended therein. The thus-obtained suspension was filtrated and thereafter dispensed into the wells of a 96-well microplate, with 3 wells being used per individual. The thus-dispensed suspensions were measured for intake of BrdU by the ELISA method. […] A multiplate reader (FLUOSTAR OPTIMA, product of BMG LABTECH Inc.) was used to measure the absorbance of each well (OD: 370 nm to 492 nm, the intake of BrdU), and the average of the absorbance of the 3 wells for each individual was used as the measurement of BrdU for the individual.

[1] = evaluation in Material Safety Data Sheet; cited from earlier work

| Compound | SI values in LLNA test (female mice) | skin sensitization in MSDS [1] |
| --- | --- | --- |
| C=C(C)C(=O)OCCOCCOC(=O)C(=C)C [a1, diethyleneglycol dimethacrylate] | 1.1 | – |
| caprolactone-modified dipentaerythritol hexaacrylate [a2] | – | Negative in MSDS |
| polypropylene glycol diacrylate [a5] | 1.5 | – |
